Legend:
[1] = test system: patients with CD; conditions: cited from earlier work
[2] = target: T1, lymphotoxin (TNF-β) (Homo sapiens, UniProt P01374); conditions: cited from earlier work
T1 sequence (P01374 35-205): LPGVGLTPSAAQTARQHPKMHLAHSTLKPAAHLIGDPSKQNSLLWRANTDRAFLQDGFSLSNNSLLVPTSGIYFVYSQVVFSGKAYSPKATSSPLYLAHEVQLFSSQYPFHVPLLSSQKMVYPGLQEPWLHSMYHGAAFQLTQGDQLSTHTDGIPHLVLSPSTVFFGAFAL

[3] = multiple-dose pharmacokinetics of vedolizumab, IV infusion, patients with UC; type: in vivo, human; conditions: dose range 2 to 10 mg/kg
Protocol: (§1) In previous studies, single-dose pharmacokinetics, pharmacodynamics (α4β7 receptor saturation), safety, and tolerability of vedolizumab were investigated over a dose range of 0.2 to 10 mg/kg in healthy volunteers (intravenous [IV] infusion) (unpublished data). After reaching peak concentrations, vedolizumab serum concentrations fell in a generally biexponential fashion until concentrations reached approximately 1 to 10 ng/mL. Thereafter, concentrations appeared to fall in a nonlinear fashion. The multiple-dose pharmacokinetics and pharmacodynamics of vedolizumab have been investigated following IV infusions of 0.5 and 2 mg/kg in patients with CD and infusion of 2, 6, and 10 mg/kg in patients with UC.

[4] = target: T2, α4β7 receptor (Homo sapiens, UniProt P13612+P26010); assay: pharmacodynamics (α4β7 receptor saturation) after multiple-dose administration; type: in vivo; conditions: following the initial dose
T2 construct: endogenous in cells; host or cells: lymphocytes of patients with CD or UC (in vivo)
Protocol: as §1

For Adalimumab, the maintaining clinical remission ([1]; 40 mg weekly or every other week, patients with CD who responded to adalimumab induction therapy) is listed as “effective”, the corticosteroid-sparing effects ([1]; patients with CD) is listed as “corticosteroid-sparing effects” and the “binding or inactivation of lymphotoxin (TNF-β)” value [2] is listed as “does not bind or inactivate”.
For “vedolizumab: humanized antibody (Ig) G1 mAb directed against the human lymphocyte integrin α4β7; CAS 943609-66-3”, the pharmacokinetics dose linearity [3] was “generally linear” and the α4β7 receptor saturation [4] was “rapid and near complete”.

From US10918716B2, “Triple combination therapy for treating Crohn's disease” (Millennium Pharmaceuticals, Inc., priority 2016, dated 2021)
